Here are results for 36 molecules from patent publication US7951530B2, “Cyclic maltosylmaltose, cyclic maltosymaltose-forming enzyme, their preparation and uses” (Kabushiki Kaisha Hayashibara Seibutsu Kagaku Kenkyujo, priority 2003, dated 2011).

Type in all cases: biochemical, Arthrobacter globiformis M6
Experiment [1] concerns CMM-forming enzyme. The experiment is described as follows: Effects of metal ions on the enzyme activity. The settings on record: for Effect on CMM-forming enzyme activity: 1 mM.
Experiment [2] relates to CMM-forming enzyme. The experiment is described as follows: Action on various saccharides (substrate specificity, TLC). The arrangement: key: “−” means “Not changed”; “+” means “Spot of substrate is slightly decreased and other products are detected”; “++” means “Spot of substrate is markedly decreased and other products are detected”; “+++” means “Spot of substrate is virtually disappeared and other products are detected”. The conditions noted are these: substrate 2% (w/v), one unit/g-substrate enzyme, 40° C., pH 6.0, 24 hours, TLC before and after reaction. How it is done:
Substrate specificity of CMM-forming enzyme of the present invention was investigated using various saccharides as substrates. Substrate solutions were prepared by dissolving maltose, maltotriose, maltotetraose, maltopentaose, maltohexaose, maltoheptaose, neotrehalose, trehalose, kojibiose, nigerose, […] isomaltose, isomaltotriose, panose, isopanose, maltitol, maltotriitol, α-, β- or γ-cyclodextrin, amylose, soluble starch, glycogen, pullulan or dextran into water. Each substrate solution was admixed with acetate buffer (pH 6.0) and CaCl2 to give final concentrations of 20 mM and 1 mM, respectively. […] Substrate concentration was set to 2% (w/v) and followed by the enzyme reaction at 40° C. and pH 6.0 for 24 hours. Action and the specificity of the enzyme on these saccharides were confirmed by analyzing the reaction mixture before and after the reaction by TLC described in Experiment 1.

In experiment [3] the test system is CMM-forming enzyme. The experiment is described as follows: Formation of CMM from various substrates. The conditions noted are these: substrate 1.0% (w/v), one unit/g-substrate enzyme, 40° C., pH 6.0, 48 hours, HPLC. How it is done:
Formation of CMM by the action of CMM-forming enzyme of the present invention was investigated using various saccharides as substrates. Maltotriose, maltotetraose, maltopentaose, maltohexaose, amylose, soluble starch, “[…] #100”, a partial starch hydrolyzate commercialized by Matsutani Chemical Industries Co., Ltd., Hyogo, Japan, or glycogen from corn, commercialized by Q.P. Corporation, Tokyo, Japan, was prepared into a solution. […] The reaction was stopped by heating the reaction mixture at 100° C. for 10 min. After treating the reaction mixture with α-glucosidase and glucoamylase by the same manner in Experiment 1, the amount of CMM was determined by HPLC and CMM content of the reaction mixture was measured.

Where [4] appears, read: CMM-forming enzyme activity in the presence of 1 mM metal salt, None = 100.

Read-outs that look alike come from different tables or passages of the source.

Consider `[Cl][Fe]([Cl])[Cl]` [FeCl3], for which the “Effect on CMM-forming enzyme activity” value in the experiment with CMM-forming enzyme [1] was “inhibited”. Besides, in the experiment on CMM-forming enzyme [1] (setting [4]), the “Relative activity (%)” value came to 32%. With maltopentaose, the Action result in the experiment on CMM-forming enzyme [2] is listed as “+++”. In the experiment on CMM-forming enzyme [3], the “CMM content (%)” value is on record as 24.4%. For the molecule `OC[C@H]1O[C@H](O[C@H]2C(O)O[C@H](CO)[C@@H](O)[C@@H]2O)[C@H](O)[C@@H](O)[C@@H]1O` (some centres unmarked) [Kojibiose, kojibiose], in the experiment on CMM-forming enzyme [2], the Action result is “−”. The same measure, in the same setting: under `OC[C@H]1O[C@H](OC[C@H]2O[C@H](O[C@H]3[C@H](O)[C@@H](O)C(O)O[C@@H]3CO)[C@H](O)[C@@H](O)[C@@H]2O)[C@H](O)[C@@H](O)[C@@H]1O` (some centres unmarked) [Panose, panose] stands “−”. Regarding amylose, the Action entry with CMM-forming enzyme [2] was “+++”. The figures for the “CMM content (%)” value with CMM-forming enzyme [3] and with CMM-forming enzyme [3] (listed as amylose) were 41.8% and “about 42%”, respectively.

As for pullulan, the Action result with CMM-forming enzyme [2] was “−”. With `[Cl-].[Cl-].[Co+2]` [CoCl2], the “Relative activity (%)” value in the experiment on CMM-forming enzyme [1] is on record as 95%. On to soluble starch, for which, in the experiment on CMM-forming enzyme [2], the Action result is “+++”. The “CMM content (%)” value in the experiment with CMM-forming enzyme [3] is 31.4%; with CMM-forming enzyme [3] (listed as soluble starch) it was “about 30%”. On to `[Cl][Hg][Cl]` [HgCl2], for which the “Effect on CMM-forming enzyme activity” value in the experiment with CMM-forming enzyme [1] is “remarkably inhibited”. The “Relative activity (%)” value with CMM-forming enzyme [1] (setting [4]) stood at 2%.

Consider `OC[C@H]1O[C@H](O[C@H]2[C@H](O)[C@@H](CO)OC(O)[C@@H]2O)[C@H](O)[C@@H](O)[C@@H]1O` (some centres unmarked) [Nigerose, nigerose], for which the Action result in the experiment with CMM-forming enzyme [2] is “−”.

Take `OC[C@H]1O[C@@H]2O[C@H]3[C@H](O)[C@@H](O)[C@@H](O[C@H]4[C@H](O)[C@@H](O)[C@@H](O[C@H]5[C@H](O)[C@@H](O)[C@@H](O[C@H]6[C@H](O)[C@@H](O)[C@@H](O[C@H]7[C@H](O)[C@@H](O)[C@@H](O[C@H]8[C@H](O)[C@@H](O)[C@@H](O[C@H]1[C@H](O)[C@H]2O)O[C@@H]8CO)O[C@@H]7CO)O[C@@H]6CO)O[C@@H]5CO)O[C@@H]4CO)O[C@@H]3CO` [β-Cyclodextrin, β-cyclodextrin]: the Action result in the experiment with CMM-forming enzyme [2] was “−”. Regarding `OC[C@H]1O[C@H](O[C@H]2[C@H](O)[C@@H](O)[C@@H](O[C@H]3[C@H](O)[C@@H](O)[C@@H](O[C@H]4[C@H](O)[C@@H](O)C(O)O[C@@H]4CO)O[C@@H]3CO)O[C@@H]2CO)[C@H](O)[C@@H](O)[C@@H]1O` (some centres unmarked) [Maltotetraose, maltotetraose], the Action entry with CMM-forming enzyme [2] was “+++”. In the experiment on CMM-forming enzyme [3], the “CMM content (%)” value is on record as 27.3%. For the molecule glycogen, the Action entry with CMM-forming enzyme [2] was “++”. The figures for the “CMM content (%)” value in the experiment with CMM-forming enzyme [3] and in the experiment on CMM-forming enzyme [3] (listed as glycogen) were 29.5% and “about 30%”, respectively. With maltohexaose, in the experiment with CMM-forming enzyme [2], the Action result is “+++”. Besides, the “CMM content (%)” value in the experiment on CMM-forming enzyme [3] was 41.6%. For `OC[C@H]1O[C@H](OC[C@H]2OC(O)[C@H](O)[C@@H](O)[C@@H]2O)[C@H](O)[C@@H](O)[C@@H]1O` (some centres unmarked) [Isomaltose, isomaltose], the Action result with CMM-forming enzyme [2] was “−”. On the same count and under the same terms, under `OC[C@H]1O[C@@H]2O[C@H]3[C@H](O)[C@@H](O)[C@@H](O[C@H]4[C@H](O)[C@@H](O)[C@@H](O[C@H]5[C@H](O)[C@@H](O)[C@@H](O[C@H]6[C@H](O)[C@@H](O)[C@@H](O[C@H]7[C@H](O)[C@@H](O)[C@@H](O[C@H]1[C@H](O)[C@H]2O)O[C@@H]7CO)O[C@@H]6CO)O[C@@H]5CO)O[C@@H]4CO)O[C@@H]3CO` [α-Cyclodextrin, α-cyclodextrin] stands “−”. As for `[Cl][Pb][Cl]` [PbCl2], in the experiment with CMM-forming enzyme [1], the “Effect on CMM-forming enzyme activity” value is “inhibited”. Also, the “Relative activity (%)” value in the experiment with CMM-forming enzyme [1] (setting [4]) turned out to be 36%. With `[Cl-].[Cl-].[Zn+2]` [ZnCl2], the “Relative activity (%)” value with CMM-forming enzyme [1] (setting [4]) is 73%.

As to `[Cl][Cu][Cl]` [CuCl2], the “Effect on CMM-forming enzyme activity” value in the experiment on CMM-forming enzyme [1] is “remarkably inhibited”. For the same molecule, in the experiment on CMM-forming enzyme [1] (setting [4]), the “Relative activity (%)” value is given as 1%. As to maltotriose, in the experiment on CMM-forming enzyme [2], the Action result is recorded as “+”. The “CMM content (%)” value is on record as 0.6% with CMM-forming enzyme [3] and “about 0.6%” with CMM-forming enzyme [3] (listed as maltotriose). Consider `[Cl-].[Cl-].[Mg+2]` [MgCl2], for which the “Relative activity (%)” value in the experiment on CMM-forming enzyme [1] (setting [4]) is 98%. For `OC[C@H]1O[C@H](O[C@H]2[C@H](O)[C@@H](O)[C@@H](OC[C@H]3OC(O)[C@H](O)[C@@H](O)[C@@H]3O)O[C@@H]2CO)[C@H](O)[C@@H](O)[C@@H]1O` (some centres unmarked) [Isopanose, isopanose], in the experiment with CMM-forming enzyme [2], the Action result was “−”. Regarding maltoheptaose, the Action entry in the experiment with CMM-forming enzyme [2] is “+++”. In addition, the “CMM content (%)” value in the experiment on CMM-forming enzyme [3] was 36.6%. For the molecule `[Cl][Fe][Cl]` [FeCl2], the “Relative activity (%)” value with CMM-forming enzyme [1] (setting [4]) is listed as 95%. In the case of `[Ba+2].[Cl-].[Cl-]` [BaCl2], in the experiment with CMM-forming enzyme [1] (setting [4]), the “Relative activity (%)” value is 90%.

For the molecule dextran, the Action entry in the experiment with CMM-forming enzyme [2] is reported as “−”.

With `OC[C@@H](O)[C@@H](O[C@H]1O[C@H](CO)[C@@H](O[C@H]2O[C@H](CO)[C@@H](O)[C@H](O)[C@H]2O)[C@H](O)[C@H]1O)[C@H](O)[C@@H](O)CO` [Maltotriitol, maltotriitol], the Action entry in the experiment on CMM-forming enzyme [2] is reported as “−”. In the case of `[Cl][Ni][Cl]` [NiCl2], the “Relative activity (%)” value in the experiment on CMM-forming enzyme [1] (setting [4]) came out at 90%.

With `[Cl][Al]([Cl])[Cl]` [AlCl3], in the experiment on CMM-forming enzyme [1], the “Effect on CMM-forming enzyme activity” value was “inhibited”. The “Relative activity (%)” value with CMM-forming enzyme [1] (setting [4]) came out at 13%. As to `[Cl][Mn][Cl]` [MnCl2], the “Relative activity (%)” value in the experiment on CMM-forming enzyme [1] (setting [4]) turned out to be 97%. Same read-out and setting: under `[Ca+2].[Cl-].[Cl-]` [CaCl2] stands 99%. In the case of `OC[C@H]1O[C@@H](O[C@H]2O[C@H](CO)[C@@H](O)[C@H](O)[C@H]2O)[C@H](O)[C@@H](O)[C@@H]1O` [Neotrehalose, neotrehalose], in the experiment on CMM-forming enzyme [2], the Action entry was “−”. With `OC[C@H]1O[C@H](O[C@H]2O[C@H](CO)[C@@H](O)[C@H](O)[C@H]2O)[C@H](O)[C@@H](O)[C@@H]1O` [Trehalose, trehalose], the Action result in the experiment on CMM-forming enzyme [2] was “−”. As for `OC[C@H]1O[C@H](OC[C@H]2O[C@H](OC[C@H]3OC(O)[C@H](O)[C@@H](O)[C@@H]3O)[C@H](O)[C@@H](O)[C@@H]2O)[C@H](O)[C@@H](O)[C@@H]1O` (some centres unmarked) [Isomaltotriose, isomaltotriose], the Action result in the experiment on CMM-forming enzyme [2] was “−”. For the molecule `OC[C@H]1O[C@@H]2O[C@H]3[C@H](O)[C@@H](O)[C@@H](O[C@H]4[C@H](O)[C@@H](O)[C@@H](O[C@H]5[C@H](O)[C@@H](O)[C@@H](O[C@H]6[C@H](O)[C@@H](O)[C@@H](O[C@H]7[C@H](O)[C@@H](O)[C@@H](O[C@H]8[C@H](O)[C@@H](O)[C@@H](O[C@H]9[C@H](O)[C@@H](O)[C@@H](O[C@H]1[C@H](O)[C@H]2O)O[C@@H]9CO)O[C@@H]8CO)O[C@@H]7CO)O[C@@H]6CO)O[C@@H]5CO)O[C@@H]4CO)O[C@@H]3CO` [γ-Cyclodextrin, γ-cyclodextrin], in the experiment on CMM-forming enzyme [2], the Action result was “−”. As for `[Cl-].[Cl-].[Sr+2]` [SrCl2], in the experiment on CMM-forming enzyme [1] (setting [4]), the “Relative activity (%)” value worked out at 90%.
